Laboratory results: patent US10941157B2, “Pesticidal compositions and uses thereof” (Gilead Apollo, LLC, priority 2015, dated 2021)
Converted amounts (≈) assume the structure as drawn. Read-outs that look alike come from different tables or passages of the source.

How the values were obtained:
Format in all cases: cell-based
[1] = system: Fusarium moniliforme (Fm); assay: In vitro pathogen growth inhibition assay, Fm; conditions: Fusarium verticillioides
Method in brief: (§1)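 Value reported is the compound concentration reaching ≥90% growth inhibition, from OD readings at 24 and 48 h after blank subtraction, confirmed visually. Inoculum was spores diluted in 17% V8 medium, except Rs, using 1.5 mm mycelial plugs in ¼ PDB; actual compound concentration corrected via OD600.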

[2] = system: Collectotrichum graminicola (Cg); assay: In vitro pathogen growth inhibition assay, Cg; conditions: 48 h
Method in brief: as §1

Botrtyis cinerea (Bc) = assay: In vitro pathogen growth inhibition assay, Bc; conditions: 48 h
Method in brief: as §1

Rhizoctonia solani (Rs) = assay: In vitro pathogen growth inhibition assay, Rs (mycelial plugs); conditions: Rhizoctonia solani, 48 h
Method in brief: (§2)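 Spores of Dm, Fv and Pc were diluted in 17% V8 liquid medium; Rs used 1.5 mm mycelial plugs in ¼ PDB. Compounds from 2.5 mg/ml DMSO stocks were combined with inoculum, growth was read by OD600 at 24 and 48 h with blank subtraction, and the reported value is the concentration giving ≥90% inhibition.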

[3] = system: Fusarium virguliforme (Fv); assay: In vitro pathogen growth inhibition assay, Fv
Method in brief: as §2

Septoria tritici (St) = assay: In vitro pathogen growth inhibition assay, St; conditions: Zymoseptoria tritici, 48 h
Method in brief: as §1

Diplodia maydis (Dm) = assay: In vitro pathogen growth inhibition assay, Dm; conditions: Stenocarpella maydis, 48 h
Method in brief: as §2

[4] = system: Phytophthora capsici (Pc); assay: In vitro pathogen growth inhibition assay, Pc; conditions: 48 h
Method in brief: as §2

[5] = concentration sufficient to ≥90% inhibition of growth, 48 hours vs 2% DMSO control, read-out: Compound Concentration (ppm) for ≥90% inhibition, Fm
[6] = concentration sufficient to ≥90% inhibition of growth, 48 hours vs 2% DMSO control, read-out: Compound Concentration (ppm) for ≥90% inhibition, Cg
[7] = concentration sufficient to ≥90% inhibition of growth, 48 hours vs 2% DMSO control, read-out: Compound Concentration (ppm) for ≥90% inhibition, Bc
[8] = concentration sufficient to ≥90% inhibition of growth, 48 hours vs 2% DMSO control, read-out: Compound Concentration (ppm) for ≥90% inhibition, Rs
[9] = concentration sufficient to ≥90% inhibition of growth, 48 hours vs 2% DMSO control, read-out: Compound Concentration (ppm) for ≥90% inhibition, Fv
[10] = concentration sufficient to ≥90% inhibition of growth, 48 hours vs 2% DMSO control, read-out: Compound Concentration (ppm) for ≥90% inhibition, St
[11] = concentration sufficient to ≥90% inhibition of growth, 48 hours vs 2% DMSO control, read-out: Compound Concentration (ppm) for ≥90% inhibition, Dm
[12] = concentration sufficient to ≥90% inhibition of growth, 48 hours vs 2% DMSO control, read-out: Compound Concentration (ppm) for ≥90% inhibition, Pc
[13] = ≥90% growth inhibition, 48 hours, vs 2% DMSO control, read-out: Compound Concentration (ppm) sufficient for ≥90% inhibition of Fm
[14] = ≥90% growth inhibition, 48 hours, vs 2% DMSO control, read-out: Compound Concentration (ppm) sufficient for ≥90% inhibition of Cg
[15] = ≥90% growth inhibition, 48 hours, vs 2% DMSO control, read-out: Compound Concentration (ppm) sufficient for ≥90% inhibition of Bc
[16] = ≥90% growth inhibition, mycelial plugs, 48 hours, vs 2% DMSO control, read-out: Compound Concentration (ppm) sufficient for ≥90% inhibition of Rs
[17] = ≥90% growth inhibition, 48 hours, vs 2% DMSO control, read-out: Compound Concentration (ppm) sufficient for ≥90% inhibition of Fv
[18] = ≥90% growth inhibition, 48 hours, vs 2% DMSO control, read-out: Compound Concentration (ppm) sufficient for ≥90% inhibition of St
[19] = ≥90% growth inhibition, 48 hours, vs 2% DMSO control, read-out: Compound Concentration (ppm) sufficient for ≥90% inhibition of Dm
[20] = ≥90% growth inhibition, 48 hours, vs 2% DMSO control, read-out: Compound Concentration (ppm) sufficient for ≥90% inhibition of Pc
[21] = ≥90% inhibition, 48 hours vs 2% DMSO control, read-out: Compound Concentration (ppm) sufficient for ≥90% inhibition of growth, Fm
[22] = ≥90% inhibition, 48 hours vs 2% DMSO control, read-out: Compound Concentration (ppm) sufficient for ≥90% inhibition of growth, Cg
[23] = ≥90% inhibition, 48 hours vs 2% DMSO control, read-out: Compound Concentration (ppm) sufficient for ≥90% inhibition of growth, Bc
[24] = ≥90% inhibition, mycelial plugs, 48 hours vs 2% DMSO control, read-out: Compound Concentration (ppm) sufficient for ≥90% inhibition of growth, Rs
[25] = ≥90% inhibition, 48 hours vs 2% DMSO control, read-out: Compound Concentration (ppm) sufficient for ≥90% inhibition of growth, Fv
[26] = ≥90% inhibition, 48 hours vs 2% DMSO control, read-out: Compound Concentration (ppm) sufficient for ≥90% inhibition of growth, St
[27] = ≥90% inhibition, 48 hours vs 2% DMSO control, read-out: Compound Concentration (ppm) sufficient for ≥90% inhibition of growth, Dm
[28] = ≥90% inhibition, 48 hours vs 2% DMSO control, read-out: Compound Concentration (ppm) sufficient for ≥90% inhibition of growth, Pc

| Compound | IC90 [1, 13] | IC90 [2, 14] | IC90 (Botrtyis cinerea (Bc); [15]) | IC90 (Rhizoctonia solani (Rs); [16]) | IC90 [3, 17] | IC90 (Septoria tritici (St); [18]) | IC90 (Diplodia maydis (Dm); [19]) | IC90 [4, 20] | IC90 [1, 21] | IC90 [2, 22] | IC90 (Botrtyis cinerea (Bc); [23]) | IC90 (Rhizoctonia solani (Rs); [24]) | IC90 [3, 25] | IC90 (Septoria tritici (St); [26]) | IC90 (Diplodia maydis (Dm); [27]) | IC90 [4, 28] | other results |
| --- | --- | --- | --- | --- | --- | --- | --- | --- | --- | --- | --- | --- | --- | --- | --- | --- | --- |
| COc1ccc(F)cc1[C@H](Cn1c(=O)n(C(C)(C)C(=O)NC(C)C)c(=O)c2c(C)c(-n3nccn3)sc21)OC(=O)CO [Compound I-309] | – | – | – | – | – | – | – | – | – | – | – | – | – | – | – | – | IC90 [1, 5]: 10 µg/mL (≈ 16.6 µM); IC90 [2, 6]: > 50 µg/mL; IC90 (Botrtyis cinerea (Bc); [7]): 50 µg/mL (≈ 83 µM); IC90 (Rhizoctonia solani (Rs); [8]): > 50 µg/mL; IC90 [3, 9]: 10 µg/mL (≈ 16.6 µM); IC90 (Septoria tritici (St); [10]): > 50 µg/mL; IC90 (Diplodia maydis (Dm); [11]): > 50 µg/mL; IC90 [4, 12]: > 50 µg/mL |
| CCNC(=O)C(C)(C)n1c(=O)c2c(C)c(-n3nccn3)sc2n(C[C@H](OC(C)=O)c2cc(F)ccc2OC)c1=O [Compound I-324] | 0.4 µg/mL (≈ 0.699 µM) | 10 µg/mL (≈ 17.5 µM) | 2 µg/mL (≈ 3.49 µM) | 2 µg/mL (≈ 3.49 µM) | 2 µg/mL (≈ 3.49 µM) | > 50 µg/mL | 10 µg/mL (≈ 17.5 µM) | > 50 µg/mL | – | – | – | – | – | – | – | – | – |
| COc1ccc(F)cc1[C@@H](CCCC#N)Cn1c(=O)n(C(C)(C)C(=O)NC(C)C)c(=O)c2c(C)c(-n3ccnn3)sc21 [Compound I-341] | – | – | – | – | – | – | – | – | – | – | – | – | – | – | – | – | IC90 [1, 5]: > 50 µg/mL; IC90 [2, 6]: > 50 µg/mL; IC90 (Botrtyis cinerea (Bc); [7]): > 50 µg/mL; IC90 (Rhizoctonia solani (Rs); [8]): > 50 µg/mL; IC90 [3, 9]: > 50 µg/mL; IC90 (Septoria tritici (St); [10]): > 50 µg/mL; IC90 (Diplodia maydis (Dm); [11]): > 50 µg/mL; IC90 [4, 12]: > 50 µg/mL |
| COc1ccc(F)cc1[C@H](Cn1c(=O)n(C(C)(C)C(N)=O)c(=O)c2c(C)c(-n3cccn3)sc21)OC1CCOCC1 [Compound I-146] | – | – | – | – | – | – | – | – | 2 µg/mL (≈ 3.41 µM) | 10 µg/mL (≈ 17.1 µM) | 2 µg/mL (≈ 3.41 µM) | 50 µg/mL (≈ 85.4 µM) | 50 µg/mL (≈ 85.4 µM) | > 50 µg/mL | 50 µg/mL (≈ 85.4 µM) | > 50 µg/mL | – |
| CCO[C@@H](Cn1c(=O)n(C(C)(C)C(=O)N2CCCC2)c(=O)c2c(C)c(-n3cccn3)sc21)c1cc(F)ccc1OC [Compound I-053] | – | – | – | – | – | – | – | – | 0.08 µg/mL (≈ 0.137 µM) | 2 µg/mL (≈ 3.43 µM) | 0.4 µg/mL (≈ 0.685 µM) | 2 µg/mL (≈ 3.43 µM) | 0.4 µg/mL (≈ 0.685 µM) | ≥ 50 µg/mL | ≥ 2 µg/mL | > 50 µg/mL | – |
| C=CCN(C)C(=O)C(C)(C)n1c(=O)c2c(C)c(-n3nccn3)sc2n(C[C@H](OC2CCOCC2)c2cc(F)ccc2OC)c1=O [Compound I-080] | – | – | – | – | – | – | – | – | 0.08 µg/mL (≈ 0.125 µM) | 0.08 µg/mL (≈ 0.125 µM) | 0.4 µg/mL (≈ 0.624 µM) | 0.08 µg/mL (≈ 0.125 µM) | 2 µg/mL (≈ 3.12 µM) | > 50 µg/mL | 0.4 µg/mL (≈ 0.624 µM) | > 50 µg/mL | – |
| COc1ccc(F)cc1[C@H](Cn1c(=O)n(C(C)(C)C(=O)NC(C)C)c(=O)c2c(C)c(-n3cccn3)sc21)OCC#N [Compound I-257] | 0.4 µg/mL (≈ 0.687 µM) | 2 µg/mL (≈ 3.43 µM) | 2 µg/mL (≈ 3.43 µM) | 2 µg/mL (≈ 3.43 µM) | 0.4 µg/mL (≈ 0.687 µM) | > 50 µg/mL | 50 µg/mL (≈ 85.8 µM) | > 50 µg/mL | – | – | – | – | – | – | – | – | – |
| COc1ccccc1[C@H](Cn1c(=O)n(C(C)(C)C(=O)N2CCCC2)c(=O)c2c(C)c(-n3cccn3)sc21)OC1CCOCC1 [Compound I-116] | – | – | – | – | – | – | – | – | 0.4 µg/mL (≈ 0.643 µM) | ≥ 2 µg/mL | 10 µg/mL (≈ 16.1 µM) | 2 µg/mL (≈ 3.22 µM) | 10 µg/mL (≈ 16.1 µM) | ≥ 50 µg/mL | 10 µg/mL (≈ 16.1 µM) | > 50 µg/mL | – |
| COCCO[C@@H](Cn1c(=O)n(C(C)C(=O)N2CCCC2)c(=O)c2c(C)c(-n3nccn3)sc21)c1cc(F)ccc1OC (some centres unmarked) [Compound I-139] | – | – | – | – | – | – | – | – | 0.4 µg/mL (≈ 0.666 µM) | 10 µg/mL (≈ 16.6 µM) | 2 µg/mL (≈ 3.33 µM) | 2 µg/mL (≈ 3.33 µM) | 0.4 µg/mL (≈ 0.666 µM) | 50 µg/mL (≈ 83.2 µM) | 10 µg/mL (≈ 16.6 µM) | 50 µg/mL (≈ 83.2 µM) | – |
| COc1ccc(F)cc1[C@@](O)(CCO)Cn1c(=O)n(C(C)(C)C(=O)NC(C)C)c(=O)c2c(C)c(-n3nccn3)sc21 [Compound I-276] | 0.4 µg/mL (≈ 0.68 µM) | 2 µg/mL (≈ 3.4 µM) | 2 µg/mL (≈ 3.4 µM) | 0.08 µg/mL (≈ 0.136 µM) | 2 µg/mL (≈ 3.4 µM) | > 50 µg/mL | 2 µg/mL (≈ 3.4 µM) | 10 µg/mL (≈ 17 µM) | – | – | – | – | – | – | – | – | – |
